Measurements as given in PubChem BioAssay (NCI).
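Each compound was tested at five concentrations against cells in 96-well plates for 48 hours. The concentration for full growth arrest is given as TGI.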

What was measured:
Assay in all cases: inhibition of tumour cell growth, NCI panel, 48 h
DLD-1 colon = tested on: DLD-1 colon
UO-31 renal = tested on: UO-31 renal
SF-295 CNS = tested on: SF-295 CNS
K-562 leukemia = tested on: K-562 leukemia
LXFL 529 NSCLC = tested on: LXFL 529 NSCLC
SK-OV-3 ovarian = tested on: SK-OV-3 ovarian
HOP-18 NSCLC = tested on: HOP-18 NSCLC
EKVX NSCLC = tested on: EKVX NSCLC
SK-MEL-28 melanoma = tested on: SK-MEL-28 melanoma
786-0 renal = tested on: 786-0 renal
HOP-62 NSCLC = tested on: HOP-62 NSCLC
DMS 114 small cell lung = tested on: DMS 114 small cell lung
OVCAR-4 ovarian = tested on: OVCAR-4 ovarian
DMS 273 small cell lung = tested on: DMS 273 small cell lung
PC-3 prostate = tested on: PC-3 prostate

Row | SMILES | TGI (DLD-1 colon) [µM] | TGI (UO-31 renal) [µM] | TGI (SF-295 CNS) [µM] | TGI (K-562 leukemia) [µM] | TGI (LXFL 529 NSCLC) [µM] | TGI (SK-OV-3 ovarian) [µM] | TGI (HOP-18 NSCLC) [µM] | TGI (EKVX NSCLC) [µM] | TGI (SK-MEL-28 melanoma) [µM] | TGI (786-0 renal) [µM] | TGI (HOP-62 NSCLC) [µM] | TGI (DMS 114 small cell lung) [µM] | TGI (OVCAR-4 ovarian) [µM] | TGI (DMS 273 small cell lung) [µM] | TGI (PC-3 prostate) [µM]
1 | CCCCCCCSCC1C(=O)C23C(O)C1CCC2C12COC3(O)C(O)C1C(C)(C)CCC2O (stereo unspecified) | 30 | 23.5 | 33.4 | 15.8 | 6.88 | 32 | 25 | 32.9 | 22.7 | 26.7 | 37.9 | 23.1 | 25.3 | 27.3 | –
2 | CC[C@](C)(O)C(=O)O[C@H]1C(=O)O[C@@H]2C[C@H]3C(C)=C[C@H](O)[C@@H](O)[C@]3(C)[C@H]3[C@@]4(O)OC[C@]32[C@@H]1[C@@H](C)[C@H]4O | 63.6 | 284 | 116 | 48.8 | – | 263 | 298 | 50.3 | 123 | – | 157 | 17.6 | 185 | 127 | –
3 | Nc1nc(Cl)cc(NCCCCCCCCCCCCNc2cc(Cl)nc(N)n2)n1 | > 100 | > 100 | 32.7 | > 100 | 53 | > 100 | > 100 | > 100 | 30 | – | 35.2 | – | 75.2 | 58 | –
4 | CCN(CC)c1cccc2c1C1(O)CCC3(CC21)OCCCCO3 (stereo unspecified) | > 100 | > 100 | > 100 | > 100 | > 100 | > 100 | > 100 | – | > 100 | > 100 | > 100 | > 100 | > 100 | > 100 | –
5 | CC(C)CCCC(C)[C@H]1CC[C@H]2[C@@H]3CC[C@H]4C[C@@H](CCC=C(c5cc(Cl)c(O)c(C(=O)O)c5)c5cc(Cl)c(O)c(C(=O)O)c5)CC[C@]4(C)[C@H]3CC[C@]12C (stereo partly specified) (tested in a mixture with another compound) | – | 27.2 | > 50 | > 50 | – | > 50 | – | > 50 | > 50 | > 50 | > 50 | – | > 50 | – | > 50
6 | CC(C)c1ccc2[nH]c(O)c(C3=Nc4ccccc4C3=O)c2c1 | – | > 100 | > 100 | > 100 | – | 30.2 | – | 42.8 | > 100 | 12.3 | 21 | – | 12.8 | – | 54.8
7 | COc1ccc(CCc2ccccc2CC(=O)O)cc1 | > 100 | > 100 | > 100 | > 100 | > 100 | > 100 | > 100 | > 100 | > 100 | > 100 | – | > 100 | > 100 | > 100 | –
8 | COc1ccc2c(c1)CCCN1Cc3ccccc3CC21 (stereo unspecified) | – | > 100 | > 100 | > 100 | – | > 100 | – | > 100 | > 100 | > 100 | > 100 | – | > 100 | – | > 100
9 | CC(=O)c1cccc(NC(=O)C(=O)C(C(=O)c2ccccc2F)C2OC(=O)c3ccccc32)c1 (stereo unspecified) | > 100 | > 100 | > 100 | > 100 | > 100 | > 100 | – | > 100 | > 100 | – | > 100 | 90 | > 100 | > 100 | –
10 | CCCCCCCCCC1CC(=O)NCC(=O)NC(C(C)C)C(=O)NC(CC(C)C)C(=O)NC(C)C(=O)NC(C(C)C)C(=O)O1 (stereo unspecified) | – | > 100 | 37 | > 53.3 | – | 39.2 | – | > 79.9 | 36.6 | 35 | 55 | – | 25.4 | – | 22.4
11 | Clc1ccc(-c2nnc(C34CC5CC(CC(C5)C3)C4)o2)cc1 | – | 14.6 | > 100 | > 100 | – | > 100 | – | > 100 | > 100 | > 100 | > 100 | – | > 100 | – | > 100
12 | C1=NCCNCCN=Cc2ccccc2OCc2cccc(n2)COc2ccccc21 | – | > 30.7 | > 51.4 | > 79.5 | – | > 100 | – | > 100 | > 100 | > 39.1 | 54.8 | – | 99.7 | – | > 95.3
13 | FC(F)(F)C1(C(F)(F)F)O[SiH]2(OC(C(F)(F)F)(C(F)(F)F)c3ccccc32)c2ccccc21 | – | 30.7 | 20.3 | 31.6 | 38.5 | – | 75.1 | 39.4 | 72.6 | 31.7 | – | 29.1 | 23.4 | 53.2 | –
14 | O=C(OC(/C=C/c1ccccc1)P1(=O)N(Cc2ccccc2)[C@@H]2CCCC[C@H]2N1Cc1ccccc1)c1ccccc1 (stereo partly specified) | – | 68.6 | > 100 | > 100 | – | > 100 | – | > 100 | > 100 | > 100 | > 100 | – | > 100 | – | > 100
15 | O=[N+]([O-])/C=C/COCc1cc2c(cc1Br)OCO2 | – | 32.3 | > 100 | > 100 | – | > 100 | – | 48.8 | 25.4 | 30.6 | 41.9 | – | 36.7 | – | 25.6
16 | O=[N+]([O-])c1ccc(NC(=S)Nc2ccccn2)cc1 | – | > 100 | > 100 | > 100 | – | > 100 | – | > 85.6 | > 100 | > 59 | 44.8 | – | > 100 | – | > 100
17 | Cc1ccc(/C(O)=C/c2nc3ccccc3[nH]c2=O)c(C)c1 | – | 30.6 | 53 | > 100 | – | 33.6 | – | 56.1 | 54.6 | 14.7 | 34.3 | – | 6.17 | – | > 61.5
18 | C/C(=N\NC(=S)NNC(=S)N(C)c1ccccc1)c1ccccn1 | > 100 | 7.59 | > 100 | > 100 | > 100 | > 83.8 | 0.732 | 10.7 | > 100 | > 47.2 | > 100 | 12.6 | > 100 | > 100 | –
